# PMC9505123, “Zeta-Carotene Isomerase (Z-ISO) Is Required for Light-Independent Carotenoid Biosynthesis in the Cyanobacterium Synechocystis sp. PCC 6803” (Microorganisms, 2022)
# Molecular target: T1, Synechocystis ZDS (CrtQ) (Synechocystis sp. PCC 6803, UniProt P74306)
# T1 construct: pCDFDuet-1 MCS1, co-expressed with slr1599 (pAH587) or maize Z-ISO (pAH590) in E. coli BL21(DE3) with pAC-ZETAipi
# T1 sequence (P74306 1-489): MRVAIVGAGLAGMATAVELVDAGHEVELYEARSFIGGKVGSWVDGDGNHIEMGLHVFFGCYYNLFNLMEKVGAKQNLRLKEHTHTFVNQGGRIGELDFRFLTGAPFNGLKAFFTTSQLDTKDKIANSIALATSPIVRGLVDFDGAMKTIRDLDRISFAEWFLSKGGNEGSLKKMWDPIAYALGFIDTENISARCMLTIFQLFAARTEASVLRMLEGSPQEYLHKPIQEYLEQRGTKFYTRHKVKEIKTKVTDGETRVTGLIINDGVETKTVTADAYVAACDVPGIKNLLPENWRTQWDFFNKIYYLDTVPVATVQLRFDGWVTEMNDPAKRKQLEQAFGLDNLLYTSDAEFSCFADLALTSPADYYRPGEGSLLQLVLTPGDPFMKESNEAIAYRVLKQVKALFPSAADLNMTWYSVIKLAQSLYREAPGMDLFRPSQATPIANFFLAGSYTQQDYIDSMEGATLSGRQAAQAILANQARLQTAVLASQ
# Test: RP-HPLC of carotenoids from dark-grown E. coli co-expressing pAC-ZETAipi and Z-ISO
# Type: cell-based
# Details: 37 °C, 24 h, substrate formed in situ by Slr1599 or maize Z-ISO, converted to cis-lycopene isomers
structure (smiles),measurement,value
"CC(C)=CCC/C(C)=C/CC\C(C)=C/C=C/C(C)=C/C=C/C=C(C)/C=C/C=C(/C)CC/C=C(\C)CCC=C(C)C [9,9′-di-cis-ζ-carotene]",RP-HPLC of carotenoids from dark-grown E. coli co-expressing pAC-ZETAipi and Z-I,ζ-carotene species were almost completely absent and a variety of new carotenoid species
